From patent publication US10350210B2, “EGFR and ALK dual inhibitor” (PRECEDO PHARMACEUTICALS CO., LTD, priority 2015, dated 2019)

Key:
[1] = tested on: EGFR protein (EGFR L858R/T790M, H1975); experiment: Effect on signaling pathway in cells, H1975; type: cell-based, human; settings: 4 h
From the text: In four cell lines (all purchased from ATCC) including non-small cell lung cancer cell line A549 (expressing wild-type EGFR gene), non-small cell lung cancer cell line H1975 (expressing EGFR L858R/T790M double mutant gene), non-small cell lung cancer cell line H3255 (expressing EGFR L858R mutant gene) and non-small cell lung cancer cell line PC-9 (expressing EGFR delE746_A750 mutant gene), the effect of Compound 1 on EGFR or other protein kinases related to signaling pathways of EGFR such as Stat3, AKT, ErK, eIF4E, 4EBP1, P70S6K was assessed by assaying a number of cellular biochemical and functional endpoints. […] The effect of Compound 1 on phosphorylation of Stat3Y705, AKT T308, AKT 5473, Erk T202/204, EGFR Y1068, P70S6K Thr389, eIF4E Ser209, Erk T202/204, 4EBP1 (Thr37/46) in these cell lines was assayed (FIGS. 1a to 1d).
In non-small cell lung cancer cell line H1975 (expressing EGFR L858R/T790M double mutant gene), the effect of Compound 10 on EGFR and other protein kinases that are closely related to the signaling pathways of EGFR such as Stat3, AKT, ErK, eIF4E, 4EBP1, P70S6K in this cell was assessed by assaying a number of cellular biochemical and functional endpoints. […] The effect of Compound 10 on phosphorylation of Stat3Y705, AKT T308, AKT S473, Erk T202/204, EGFR Y1068, P70S6K Thr389, eIF4E Ser209, Erk T202/204, 4EBP1 (Thr37/46) in this cell line was assayed (FIG. 1g).

H1975 = experiment: Effect on cell cycle (PI staining, flow cytometer), H1975; type: cell-based, human; settings: H1975 (EGFR L858R/T790M), 24 hours
From the text: In order to study which growth phase the cell was halted after administration of the drugs, five cell lines including non-small cell lung cancer cell line A549 (expressing wild-type EGFR gene), non-small cell lung cancer cell line H1975 (expressing EGFR L858R/T790M double mutant gene), non-small cell Lung cancer cell line PC-9 (expressing EGFR delE746_A750 mutant gene), non-small cell lung cancer cell line H3255 (expressing EGFR L858R mutant gene) and non-small cell lung cancer cell NCI-H3122 (expressing ALK gene) were tested for effect of Compound 1 on cell cycle distribution. Two cell lines including non-small cell lung cancer cell NCI-H3122 (expressing ALK gene) and non-small cell lung cancer cell H1975 (expressing EGFR L858R/T790M double mutant gene) were tested for effect of Compound 10 on cell cycle distribution. […]

Structure (SMILES) | concentration able to completely inhibit the phosphorylation of EGFR protein (also affects AKT and ERK phosphorylation) [1] [µM] | effect on cell cycle distribution (H1975)
C=CC(=O)Nc1cc(Nc2ncc(Cl)c(Nc3ccccc3S(=O)(=O)C(C)C)n2)c(OC)cc1N1CCCN(C)CC1 [Compound 10, N-(5-(5-chloro-4-(2-(isopropylsulfonyl)phenylamino)pyrimidin-2-ylamino)-4-methoxy-2-(4-methyl-1,4-homopiperazin-1-yl)phenyl)acrylamide] | 0.03 | halt the cells in G0-G1 phase
C=CC(=O)Nc1cc(Nc2ncc(Cl)c(Nc3ccccc3S(=O)(=O)C(C)C)n2)c(OC)cc1N1CCN(CC)CC1 [Compound 1, N-(5-(5-chloro-4-(2-(isopropylsulfonyl)phenylamino)pyrimidin-2-ylamino)-2-(4-ethylpiperazin-1-yl)-4-methoxyphenyl)acrylamide] | 0.03 | halt the cells in G0-G1 phase
